Assay results from paper PMC8480901 (PLoS ONE, 2021).
Where “and” joins values, the source holds several entries; their conditions need not be identical. Identical values can stand only once.

What was measured:
[1] = tested on: IL-8–activated human neutrophils; test: Chemotaxis of IL-8–activated human neutrophils (transwell, CellTiter Glo); format: cell-based; settings: for IL-8–induced chemotaxis of human neutrophils: 0.03 to 30 μM; for Neutrophilic chemotaxis, RLU, Mean / Neutrophilic chemotaxis: % reduction / Neutrophilic chemotaxis, RLU, single replicates: IL-8
From the text: Buffy coat (blood sample fraction comprising white blood cells and platelets) from whole blood was obtained from a healthy adult volunteer at the Croatian Institute of Transfusion Medicine (CITM; Zagreb, Croatia). The CITM ethics committee approved the blood collection process, and the volunteer provided written informed consent prior to blood collection. Neutrophils were isolated from the buffy coat, an aliquot of which was used for cell counting via hematologic analyzer (X500i; Sysmex). […] The diluted buffy coat was drawn into sterile 50-mL syringes and incubated for 30 minutes at RT. Following incubation, the upper layer of leukocyte-rich plasma (35 mL) was decanted into a new sterile 50-mL conical centrifuge tube, carefully layered onto 15 mL of Lymphoprep (Axis-Shield Diagnostics, Ltd., Dundee, UK) and centrifuged at 400×g (brake turned off) for 35 minutes at RT. The supernatant and mononuclear ring were discarded, and the pellet was resuspended in 10 mL of cold sterile MilliQ water. […] Resuspended neutrophils were counted via Sysmex X500i hematologic analyzer.
All test compounds were reconstituted in DMSO (Sigma-Aldrich Chemie GmbH) to 100-mM stock concentrations, taking into consideration and correcting for salt and purity. A 30-mM stock solution of reference compound Sch527123 (MedChemExpress, Monmouth Junction, NJ, USA) was diluted to 10 mM with DMSO.
DMSO was used as vehicle. […] The reference compound was tested at concentrations of 0.003, 0.01, 0.03, 0.1, 0.3, 1, 3, and 10 μM. All compounds were tested in triplicate, and the final DMSO concentration was 0.1% per well.
Test and reference compound working solutions were then added (20 μL/well) for a 10-fold dilution to final testing concentrations. Compounds and cells were mixed by gentle pipetting, and the plate was pre-incubated for 30 minutes at RT with gentle mixing by pipetting.
Negative control wells received 180 μL of migration medium alone. To all wells, 20 μL of compound working solutions or DMSO vehicle was added. Once pre-incubation of cells with compounds was complete, the transwell inserts were carefully placed on the receiver plate, with caution to avoid air bubble formation, which could prevent cell migration. To the upper wells, 75 μL of cell suspension (375,000 cells/well) was added, taking care not to tear the membrane with pipette tips.
After incubation, the number of cells that migrated to the lower wells was quantified by removing the Transwell insert and adding 200 μL of CellTiter Glo reagent (CellTiter-Glo Luminescent Cell Viability Assay, Promega, Madison, WI, USA) to each lower well to quantify the amount of adenosine triphosphate (ATP) present, signaling the presence of metabolically active cells. The plate was incubated for 10 minutes in the dark at RT, followed by transferring 150 μL of solution into wells of a white 96-well plate (Lumitrac 200; Greiner Bio-One International GmbH, Kremsmunster, Austria).
For the chemotaxis and cytotoxicity evaluations, average relative light unit values were calculated from all untreated vehicle samples and, for each sample, percentage of vehicle value was calculated. The tested compound was considered cytotoxic if reduction from untreated vehicle was ≥20%.

human PBMCs = test: Cytotoxicity in human PBMCs (adenylate kinase release, ToxiLight); format: cell-based; settings: for fold-change of adenylate kinase release at test concentration vs vehicle control, Mean ± SEM: human PBMCs, n=2
Protocol: The effect of t est compounds on cell viabilit y of J 774.2 macrophages and human PBMCs […]
was determined b y comp aring th e aden yl ate kinas e signal obtain ed in the p resence of diff er ent concentrations of compounds with those obtained in DMSO (vehicle) control. Signals were […]
divided,and the results were ex pressed as fold-change versus v ehicle con trol .

[2] = tested on: LPS-induced acute lung injury; settings: cited from earlier work

| Compound | IL-8–induced chemotaxis of human neutrophils [1] | Neutrophilic chemotaxis, RLU, Mean ([1]; 0.03 µM) [RLU] | Neutrophilic chemotaxis: % reduction ([1]; 0.03 µM) [%] | Neutrophilic chemotaxis, RLU, Mean ([1]; 0.1 µM) [RLU] | Neutrophilic chemotaxis: % reduction ([1]; 0.1 µM) [%] | Neutrophilic chemotaxis, RLU, Mean ([1]; 0.3 µM) [RLU] | Neutrophilic chemotaxis, RLU, Mean ([1]; 1 µM) [RLU] | Neutrophilic chemotaxis: % reduction ([1]; 1 µM) [%] | Neutrophilic chemotaxis, RLU, Mean ([1]; 3 µM) [RLU] | Neutrophilic chemotaxis: % reduction ([1]; 3 µM) [%] | Neutrophilic chemotaxis, RLU, Mean ([1]; 10 µM) [RLU] | Neutrophilic chemotaxis: % reduction ([1]; 10 µM) [%] | Neutrophilic chemotaxis, RLU, Mean ([1]; 30 µM) [RLU] | Neutrophilic chemotaxis: % reduction ([1]; 30 µM) [%] | Neutrophilic chemotaxis, RLU, Mean ([1]; 100 µM) [RLU] | Neutrophilic chemotaxis: % reduction ([1]; 100 µM) [%] | other results |
| --- | --- | --- | --- | --- | --- | --- | --- | --- | --- | --- | --- | --- | --- | --- | --- | --- | --- |
| CC[C@H]1OC(=O)[C@H](C)[C@@H](O[C@H]2C[C@@](C)(OC)[C@@H](O)[C@H](C)O2)[C@H](C)[C@@H](O[C@@H]2O[C@H](C)C[C@H](N(C)C)[C@H]2O)[C@](C)(O)C[C@@H](C)CN(C)[C@H](C)[C@@H](O)[C@]1(C)O [Azithromycin] | no effect | 121773 | 10 | 122140 | 9 | 131533 | 117320 | 13 | 121787 | 9.51 | 120227 | 11 | 136440 | -3 | 142040 | -8 | Neutrophilic chemotaxis, RLU, single replicates ([1]; 0.03 µM, listed as Azi): 113920 RLU and 126240 RLU; Neutrophilic chemotaxis, RLU, single replicates ([1]; 0.1 µM, listed as Azi): 121960 RLU and 122320 RLU; Neutrophilic chemotaxis, RLU, single replicates ([1]; 0.3 µM, listed as Azi): 126760 RLU and 132240 RLU and 135600 RLU; Neutrophilic chemotaxis, RLU, single replicates ([1]; 1 µM, listed as Azi): 120320 RLU and 118720 RLU and 112920 RLU; Neutrophilic chemotaxis, RLU, single replicates ([1]; 3 µM, listed as Azi): 127280 RLU and 119280 RLU and 118800 RLU; Neutrophilic chemotaxis, RLU, single replicates ([1]; 10 µM, listed as Azi): 119960 RLU and 123240 RLU and 117480 RLU; Neutrophilic chemotaxis, RLU, single replicates ([1]; 30 µM, listed as Azi): 143280 RLU and 148320 RLU and 117720 RLU; Neutrophilic chemotaxis, RLU, single replicates ([1]; 100 µM, listed as Azi): 140160 RLU and 151960 RLU and 134000 RLU; cytotoxic effects (human PBMCs; PBMCs, ≤100 μM): no cytotoxic effects; neutrophil recruitment ([2]; pretreatment in LPS-induced acute lung injury models): significantly reduced |
| C[C@@H]1C[C@H]2[C@@H]3CCC4=CC(=O)C=C[C@]4(C)[C@@]3(F)[C@@H](O)C[C@]2(C)[C@@]1(O)C(=O)CO [Dexamethasone] | – | – | – | – | – | – | – | – | – | – | – | – | – | – | – | – | LPS-induced pulmonary edema, accumulation of inflammatory cells in BALF, and increased inflammatory cytokines (eg, TNF-α and IL-6) ([2]; pretreated mice vs no-treatment control group): significantly attenuated |
| C=C[C@]1(C)C[C@@H](OC(=O)CS[C@@H]2CC[C@@H](N)C[C@H]2O)[C@]2(C)[C@H](C)CC[C@]3(CCC(=O)[C@H]32)[C@@H](C)[C@@H]1O [Lefamulin] | no effect | 133060 | -0.0452 | 130347 | 2.26 | 132827 | 128693 | 3.66 | 129147 | 3.27 | 129213 | 3.22 | 118747 | 12 | 73307 | 51 | Neutrophilic chemotaxis, RLU, single replicates ([1]; 0.03 µM, listed as Lef): 133000 RLU and 133120 RLU; Neutrophilic chemotaxis, RLU, single replicates ([1]; 0.1 µM, listed as Lef): 131200 RLU and 127720 RLU and 132120 RLU; Neutrophilic chemotaxis: % reduction ([1]; 0.3 µM): 0.153%; Neutrophilic chemotaxis, RLU, single replicates ([1]; 0.3 µM, listed as Lef): 128480 RLU and 128040 RLU and 141960 RLU; Neutrophilic chemotaxis, RLU, single replicates ([1]; 1 µM, listed as Lef): 129760 RLU and 127360 RLU and 128960 RLU; Neutrophilic chemotaxis, RLU, single replicates ([1]; 3 µM, listed as Lef): 127920 RLU and 125520 RLU and 134000 RLU; Neutrophilic chemotaxis, RLU, single replicates ([1]; 10 µM, listed as Lef): 122760 RLU and 130480 RLU and 134400 RLU; Neutrophilic chemotaxis, RLU, single replicates ([1]; 30 µM, listed as Lef): 115000 RLU and 125400 RLU and 115840 RLU; Neutrophilic chemotaxis, RLU, single replicates ([1]; 100 µM, listed as Lef): 81720 RLU and 76640 RLU and 61560 RLU; cell viability (human PBMCs; PBMCs, 100 μM): reduced; fold-change of adenylate kinase release at test concentration vs vehicle control, Mean ± SEM (human PBMCs; 0.03 µM): 1.07 ± 0.03 fold-change; fold-change of adenylate kinase release at test concentration vs vehicle control, Mean ± SEM (human PBMCs; 0.1 µM): 1.04 ± 0.01 fold-change; fold-change of adenylate kinase release at test concentration vs vehicle control, Mean ± SEM (human PBMCs; 0.3 µM): 1.03 ± 0.02 fold-change; fold-change of adenylate kinase release at test concentration vs vehicle control, Mean ± SEM (human PBMCs; 1 µM): 1.00 ± 0.01 fold-change; fold-change of adenylate kinase release at test concentration vs vehicle control, Mean ± SEM (human PBMCs; 3 µM): 0.95 ± 0.01 fold-change; fold-change of adenylate kinase release at test concentration vs vehicle control, Mean ± SEM (human PBMCs; 10 µM): 0.93 ± 0.01 fold-change; fold-change of adenylate kinase release at test concentration vs vehicle control, Mean ± SEM (human PBMCs; 30 µM): 0.92 ± 0.03 fold-change; fold-change of adenylate kinase release at test concentration vs vehicle control, Mean ± SEM (human PBMCs; 100 µM): 1.20 ± 0.03 fold-change |
